Assay results reported in ChEMBL document CHEMBL3399935, “Structure-activity relationships of benzhydrol derivatives based on 1'-acetoxychavicol acetate (ACA) and their inhibitory activities on multiple myeloma cell growth via inactivation of the NF-κB pathway” (Bioorg Med Chem, 2015).
Active and inactive are the calls of the source. The rule behind the calls is not given here.

Key:
HL-60 = assay: Cytotoxicity against human HL60 cells assessed as growth inhibition at 10 uM after 3 days; type: functional, cell-based
[1] = Cytotoxicity against human HL60 cells assessed as growth inhibition after 3 days; type: functional, cell-based; settings: HL-60, 72 h
[2] = Cytotoxicity against human IM9 cells assessed as growth inhibition after 3 days; type: functional, cell-based; settings: IM-9, 72 h
[3] = biological target: T1, Nuclear factor NF-kappa-B complex (Homo sapiens) (UniProt Q00653+P19838+Q04206); assay: Inhibition of NF-kappaB in human IM9 cells assessed as inhibition of nuclear translocation at 10 uM after 30 mins by NF-kappaB (p65) transcription factor assay; type: cell-based; settings: IM-9
T1 sequence (P19838 whole entry, looked up): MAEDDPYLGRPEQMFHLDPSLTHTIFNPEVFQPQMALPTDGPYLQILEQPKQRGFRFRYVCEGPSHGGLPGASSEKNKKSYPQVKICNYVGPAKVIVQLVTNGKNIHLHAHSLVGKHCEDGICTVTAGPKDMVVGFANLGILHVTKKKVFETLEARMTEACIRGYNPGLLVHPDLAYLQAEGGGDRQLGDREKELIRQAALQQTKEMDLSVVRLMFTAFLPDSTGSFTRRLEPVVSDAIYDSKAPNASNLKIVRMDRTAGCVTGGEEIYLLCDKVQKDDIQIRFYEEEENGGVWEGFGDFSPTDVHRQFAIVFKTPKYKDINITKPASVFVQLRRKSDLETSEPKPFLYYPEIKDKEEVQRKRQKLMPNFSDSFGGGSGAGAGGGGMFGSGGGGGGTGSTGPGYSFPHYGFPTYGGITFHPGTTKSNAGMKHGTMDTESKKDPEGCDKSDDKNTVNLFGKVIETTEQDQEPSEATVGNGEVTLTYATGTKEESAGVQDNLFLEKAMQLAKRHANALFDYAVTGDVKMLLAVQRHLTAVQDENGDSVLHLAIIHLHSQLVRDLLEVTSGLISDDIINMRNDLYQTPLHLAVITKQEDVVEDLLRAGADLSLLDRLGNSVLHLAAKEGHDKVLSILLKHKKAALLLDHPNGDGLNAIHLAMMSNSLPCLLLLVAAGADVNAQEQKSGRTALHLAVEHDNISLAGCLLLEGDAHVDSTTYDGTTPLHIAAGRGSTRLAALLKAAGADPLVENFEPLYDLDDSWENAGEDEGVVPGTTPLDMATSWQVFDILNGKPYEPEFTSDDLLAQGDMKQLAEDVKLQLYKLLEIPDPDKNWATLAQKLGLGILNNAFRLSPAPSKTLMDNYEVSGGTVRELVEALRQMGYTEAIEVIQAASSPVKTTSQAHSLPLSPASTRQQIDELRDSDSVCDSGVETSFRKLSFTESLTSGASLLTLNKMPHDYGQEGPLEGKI
T1 sequence (Q00653 whole entry, looked up): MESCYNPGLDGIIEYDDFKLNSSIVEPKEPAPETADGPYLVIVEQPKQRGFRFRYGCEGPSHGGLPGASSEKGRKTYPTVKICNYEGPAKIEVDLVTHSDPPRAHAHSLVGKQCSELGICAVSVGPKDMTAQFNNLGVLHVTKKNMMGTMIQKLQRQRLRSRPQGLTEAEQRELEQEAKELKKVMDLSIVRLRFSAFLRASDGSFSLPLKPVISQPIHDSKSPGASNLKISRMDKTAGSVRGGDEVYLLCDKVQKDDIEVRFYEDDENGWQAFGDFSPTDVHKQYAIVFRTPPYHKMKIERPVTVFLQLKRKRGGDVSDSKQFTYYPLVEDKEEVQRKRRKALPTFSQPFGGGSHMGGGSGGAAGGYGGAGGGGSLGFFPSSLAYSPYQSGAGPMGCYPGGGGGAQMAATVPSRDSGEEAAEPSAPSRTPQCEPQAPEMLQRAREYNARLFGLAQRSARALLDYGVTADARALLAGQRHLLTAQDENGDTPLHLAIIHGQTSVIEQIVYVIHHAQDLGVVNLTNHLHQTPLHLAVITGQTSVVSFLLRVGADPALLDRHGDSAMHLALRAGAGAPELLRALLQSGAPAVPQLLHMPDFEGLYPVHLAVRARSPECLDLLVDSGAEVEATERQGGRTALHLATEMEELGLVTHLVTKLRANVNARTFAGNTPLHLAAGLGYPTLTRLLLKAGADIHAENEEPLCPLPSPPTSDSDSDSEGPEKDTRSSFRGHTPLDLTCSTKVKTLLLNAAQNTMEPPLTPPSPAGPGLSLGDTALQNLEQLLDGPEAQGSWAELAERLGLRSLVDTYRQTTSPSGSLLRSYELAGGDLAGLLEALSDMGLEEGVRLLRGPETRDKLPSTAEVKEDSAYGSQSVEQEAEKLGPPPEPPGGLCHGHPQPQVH
T1 sequence (Q04206 whole entry, looked up): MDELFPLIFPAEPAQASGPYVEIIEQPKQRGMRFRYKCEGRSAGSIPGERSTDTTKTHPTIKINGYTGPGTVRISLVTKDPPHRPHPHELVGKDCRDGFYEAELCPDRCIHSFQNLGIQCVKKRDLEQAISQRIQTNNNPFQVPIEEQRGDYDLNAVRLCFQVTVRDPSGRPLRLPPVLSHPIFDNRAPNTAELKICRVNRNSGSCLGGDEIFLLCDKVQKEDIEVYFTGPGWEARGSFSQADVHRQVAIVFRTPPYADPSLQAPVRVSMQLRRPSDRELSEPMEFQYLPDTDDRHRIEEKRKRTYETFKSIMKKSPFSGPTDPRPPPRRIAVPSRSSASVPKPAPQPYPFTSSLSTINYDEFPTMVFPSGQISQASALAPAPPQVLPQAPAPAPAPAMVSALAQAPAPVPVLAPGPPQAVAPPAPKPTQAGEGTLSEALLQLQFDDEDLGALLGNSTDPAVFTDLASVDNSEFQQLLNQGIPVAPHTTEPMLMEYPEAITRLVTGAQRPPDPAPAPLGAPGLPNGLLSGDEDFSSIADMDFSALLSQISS

[4] = biological target: T1, Nuclear factor NF-kappa-B complex (Homo sapiens); assay: Inhibition of NF-kappaB in human IM9 cells assessed as inhibition of nuclear translocation at 1 uM after 30 mins by NF-kappaB (p65) transcription factor assay; type: cell-based; settings: IM-9
IM-9 = assay: Cytotoxicity against human IM9 cells assessed as growth inhibition at 10 uM after 3 days; type: functional, cell-based

Row | SMILES | IC50 [1] [µM] | IC50 [2] [µM] | inhibition [3] | also measured
1 | CC(=O)NC(c1ccccc1)c1ccc(OC(C)=O)cc1 (stereo not given) |  |  |  | inhibition (HL-60): inactive
2 | CC(=O)Oc1ccc(C(OC(C)=O)c2ccc3ccccc3c2)cc1 (stereo not given) | 2.2 |  |  | 
3 | C=C[C@H](OC(C)=O)c1ccc(OC(C)=O)cc1 [1'-ACETOXYCHAVICOL ACETATE] | 2 | 2.1 | 70% | inhibition [4]: 0%
4 | CC(=O)Oc1ccc(C(OC(C)=O)c2cccc3ccccc23)cc1 (stereo not given) | 0.29 |  |  | 
5 | CC(=O)Oc1ccc2c(c1)-c1ccccc1C2OC(C)=O (stereo not given) | > 10 |  | inactive | inhibition (IM-9): inactive
6 | CC(=O)Oc1ccc(C(OC(C)=O)c2c3ccccc3cc3ccccc23)cc1 (stereo not given) | 0.12 | 0.23 | 85% | inhibition [4]: 32%
7 | CC(=O)Nc1ccc(C(OC(C)=O)c2ccccc2)cc1 (stereo not given) |  |  |  | inhibition (HL-60): inactive
8 | CC(=O)Oc1ccc2c(c1)CCc1ccccc1C2OC(C)=O (stereo not given) | 2.8 |  |  | 
9 | CC(=O)Oc1ccc(C(OC(C)=O)c2cc(-c3ccccc3)cc(-c3ccccc3)c2)cc1 (stereo not given) | 1.1 |  |  | 
10 | CC(=O)Oc1ccc(C(OC(C)=O)c2ccccc2)cc1 (stereo not given) | 3.5 | 2.5 | 61% | 
